For 14 compounds, IC50 results are on record in patent US10329270B2, “Heteroaryl compounds as BTK inhibitors and uses thereof” (Merck Patent GmbH, priority 2013, dated 2019).

This test deals with T1, full-length human BTK (Homo sapiens, UniProt Q06187).
T1 construct: 2.5× stocks of full-length human BTK (08-080); purchased CarnaBio USA, Inc., Natick, Mass; 08-080
T1 sequence (Q06187 whole entry): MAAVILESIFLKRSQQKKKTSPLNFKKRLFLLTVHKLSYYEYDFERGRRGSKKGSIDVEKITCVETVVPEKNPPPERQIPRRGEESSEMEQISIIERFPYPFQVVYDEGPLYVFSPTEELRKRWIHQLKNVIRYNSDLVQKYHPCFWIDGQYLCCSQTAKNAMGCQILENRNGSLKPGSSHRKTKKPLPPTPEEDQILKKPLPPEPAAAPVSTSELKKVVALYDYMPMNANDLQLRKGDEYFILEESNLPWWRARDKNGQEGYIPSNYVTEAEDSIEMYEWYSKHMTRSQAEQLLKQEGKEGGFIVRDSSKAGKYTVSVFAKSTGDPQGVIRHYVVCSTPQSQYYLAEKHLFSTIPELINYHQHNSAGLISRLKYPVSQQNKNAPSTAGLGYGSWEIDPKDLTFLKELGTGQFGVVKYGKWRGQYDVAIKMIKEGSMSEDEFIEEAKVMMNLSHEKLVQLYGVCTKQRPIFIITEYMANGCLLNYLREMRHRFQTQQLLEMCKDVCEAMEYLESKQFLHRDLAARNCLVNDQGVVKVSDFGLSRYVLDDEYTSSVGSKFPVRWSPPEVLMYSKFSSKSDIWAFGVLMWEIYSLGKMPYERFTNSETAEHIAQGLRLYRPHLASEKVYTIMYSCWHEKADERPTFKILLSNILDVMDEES
The test can be described thus: Assay A: BTK IC50 Enzyme Assay (microfluidic off-chip mobility shift kinase assay). It is filed as biochemical. The settings on record: full-length human BTK, kinKDR peptide substrate, incubated 90 min at 27 C; read-out: Assay A (Time Dependent BTK Enzyme Assay IC50). The method in brief:
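Off-chip microfluidic mobility shift assay with full-length human BTK; phosphorylated and unphosphorylated peptide substrate were separated by charge/mass on a LabChip 3000.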
For the compound `C=CC(=O)N1CCCC(c2ccc(C(N)=O)c(Oc3ccc(Oc4ccccc4)cc3)n2)C1` (centres unmarked) [Compound 87, 1′-Acryloyl-6-(4-phenoxy-phenoxy)-1′,2′,3′,4′,5′,6′-hexahydro-[2,3′]bipyridinyl-5-carboxylic acid amide], the half-maximal inhibitory concentration (IC50) lay within 100 to 1000 nM.
As for `C/C=C(\C#N)C(=O)N1C[C@@H]2C[C@H]1CN2c1ncc(C(N)=O)c(Oc2ccc(Oc3ccccc3)cc2)n1` [Compound 211, 2-((1S,4S)-5-((E)-2-cyanobut-2-enoyl)-2,5-diazabicyclo[2.2.1]heptan-2-yl)-4-(4-phenoxyphenoxy)pyrimidine-5-carboxamide], the figure is 1000 to 5000 nM; as for `C=CC(=O)N1CCC2(CCN(c3cnc(Oc4ccc(Oc5ccccc5)cc4)c(C(N)=O)c3)C2)C1` (centres unmarked) [Compound 224, 5-(7-Acryloyl-2,7-diaza-spiro[4.4]non-2-yl)-2-(4-phenoxy-phenoxy)-nicotinamide], 100 to 1000 nM; as for `C=CC(=O)N1CCn2ncc(-c3cnc(C(N)=O)c(NC(C)=O)c3)c2C1` [Compound 132], less than 100 nM.
Regarding `C=CC(=O)N[C@H]1C[C@H](Nc2ncc(C(N)=O)c(Oc3ccc(Oc4ccccc4)cc3)n2)C1` [Compound 176, 2-(((1r,3r)-3-acrylamidocyclobutyl)amino)-4-(4-phenoxyphenoxy)pyrimidine-5-carboxamide], the half-maximal inhibitory concentration (IC50) was 100 to 1000 nM.
Take `C/C=C/C(=O)N1CCCC(Nc2cnc(Oc3ccc(Oc4cccc(F)c4)cc3)c(C(N)=O)c2)C1` (centres unmarked) [Compound 231, (E)-5-((1-(but-2-enoyl)piperidin-3-yl)amino)-2-(4-(3-fluorophenoxy)phenoxy)nicotinamide]: the IC50 was in the range of 1000 to 5000 nM.
As for `C/C=C/C(=O)N1CCC2(CCN(c3cnc(Oc4ccc(Oc5cccc(F)c5)cc4)c(C(N)=O)c3)C2)C1` (centres unmarked) [Compound 232, (E)-5-(7-(but-2-enoyl)-2,7-diazaspiro[4.4]nonan-2-yl)-2-(4-(3-fluorophenoxy)phenoxy) nicotinamide], the figure is 1000 to 5000 nM; as for `C=CC(=O)N1CCC2(CCN(c3cnc(Oc4ccc(Oc5cccc(F)c5)cc4)c(C(N)=O)c3)C2)C1` (centres unmarked) [Compound 233, 5-(7-acryloyl-2,7-diazaspiro[4.4]nonan-2-yl)-2-(4-(3-fluorophenoxy)phenoxy)nicotinamide], 100 to 1000 nM; as for `C=CC(=O)N1CCC(c2ncc(C(N)=O)c(Oc3ccc(Oc4ccccc4)cc3)n2)CC1` [Compound 148, 2-(1-Acryloyl-piperidin-4-yl)-4-(4-phenoxy-phenoxy)-pyrimidine-5-carboxylic acid amide], less than 100 nM.
For the compound `C=CC(=O)N[C@H]1CCN(c2nc(Nc3ccc(N4CC(C)OC(C)C4)c(F)c3)c(C(N)=O)cc2F)C1` (stereo partly drawn) [Compound 181, 6-((S)-3-Acryloylamino-pyrrolidin-1-yl)-2-[4-(2,6-dimethyl-morpholin-4-yl)-3-fluoro-phenylamino]-5-fluoro-nicotinamide], the IC50 was less than 100 nM.
In the case of `C/C=C/C(=O)NC1CCN(c2cnc(Oc3ccc(Oc4cccc(F)c4)cc3)c(C(N)=O)c2)C1` (centres unmarked) [Compound 221, 5-[3-((E)-But-2-enoylamino)-pyrrolidin-1-yl]-2-[4-(3-fluoro-phenoxy)-phenoxy]-nicotinamide], the IC50 was greater than 5000 nM.
For `C=CC(=O)N[C@H]1CCN(c2nc(Nc3ccc(NC(=O)C(C)(C)C)cc3)ccc2C(N)=O)C1` [Compound 156, 2-((S)-3-Acryloylamino-pyrrolidin-1-yl)-6-[4-(2,2-dimethyl-propionylamino)-phenylamino]-nicotinamide], the IC50 is less than 100 nM.
Consider `C=CC(=O)N[C@H]1CCN(c2nc(Oc3ccc(Oc4ccccc4)cc3)c(C(N)=O)cc2F)C1` [Compound 2, 6-((S)-3-Acryloylamino-pyrrolidin-1-yl)-5-fluoro-2-(4-phenoxy-phenoxy)-nicotinamide], for which the IC50 fell in the range of 100 to 1000 nM.
Take `C=CC(=O)N[C@@H]1CCCN(c2ccc(C(N)=O)c(Nc3ccc(C(=O)N4CCOCC4)cc3)n2)C1` [Compound 205, (R)-3-Acryloylamino-6′-[4-(morpholine-4-carbonyl)-phenylamino]-3,4,5,6-tetrahydro-2H-[1,2′]bipyridinyl-5′-carboxylic acid amide]: the IC50 is less than 100 nM.

As usually defined, the IC50 is the concentration that inhibits the measured activity by half.
